Reference: US20060292255A1, “Pharmaceutical and therapeutic compositions derived from Garcinia mangostana L plant” (priority 2004, published 2006)

Tests used:
cAMP phosphodiesterase = details: Chairungsrilerd and Takeuchi et al., 1996; cited from earlier work
[1] = tested on: mammalian cells in culture; assay: Toxicity Study 2: cytotoxicity of serially diluted extract, microscopic scoring; type: cell-based; details: control media/extracts undiluted
Description: The purpose of this study was to evaluate a serially diluted extract of a 40% mangosteen pericarp test article for cytotoxicity to mammalian cells in culture. The test article was incubated in an appropriate volume of E-MEM in a sterile vessel for 24 to 25 hours at 37 f 1° C. After measures were taken to create a clear supernatant, a series of eight (8) dilutions of the extract were prepared in E-MEM in a two-fold dilution sequence. After the dilutions were prepared, the maintenance culture media was removed from test culture wells and replaced with 1 ml of test media dilutions in triplicate wells. The positive control media, test article extract, and control extracts were added at the same time to the culture plate in triplicate wells. The plates were incubated for 72 hours at 37±1° C. in a humidified atmosphere of 5±1% CO2 in air. The cultures were evaluated for cytotoxic effects by microscopic examination at 24,48 and 72±4 hours of incubation and the results scored and recorded. After the 24 hour extraction the liquid was transferred to a 50 mL conical tube and centrifuged for 10 minutes at 3000 rpm. A small pellet of powder created by the separation was discarded, the resultant supernatant was clear with a light brown color and a pH of 7.5.
Criteria for evaluating cytotoxicity included morphologic changes in cells, such as granulation, crenation, or rounding, and loss of viable cells from the monolayer by lysis or detachment. The validity of the test requires that negative control cultures maintain a healthy normal appearance throughout the duration of the test. Degrees of toxicity are scored as in Table 1, above: […]

[2] = tested on: L-929 mouse fibroblast cells; assay: Toxicity Study 1: cytotoxicity of serially diluted extract, microscopic scoring; type: cell-based; details: control media/extracts undiluted; triplicate wells
Description: The purpose of this study was to evaluate an extract of mangosteen for its level of cytotoxicity in a mammalian system. Accordingly, a serially diluted extract of a 10% mangosteen pericarp test article for cytotoxicity to mammalian cells in culture (L-929 mouse fibroblast cells, from the American Type Culture Collection: CCL-1). The test article, originally a 10% mangosteen preparation) was incubated in an appropriate volume of cell culture medium (Earle's Minimal Essential Medium, E-MEM) in a sterile vessel for 24 to 25 hours at 37 ±1° C. At the end of the extraction period, the extract was decanted from the test article. A series of eight (8) dilutions of the extract was prepared in culture medium in a two-fold dilution sequence. After the dilutions were prepared, the maintenance culture medium was removed from test culture wells and replaced with 1 ml of article test dilutions. […] The cultures were evaluated for cytotoxic effects by microscopic examination at 24, 48, and 72±4 hours of incubation, and the results scored and recorded. […]
Criteria for evaluating cytotoxicity included morphologic changes in cells, such as granulation, crenation, or rounding, and loss of viable cells from the monolayer by lysis or detachment. […] Degrees of toxicity are scored according to the scheme in Table 2: […]

COX 1 = COX 1 (Homo sapiens, UniProt P23219); details: Nakatani et al., 2002, 2004; cited from earlier work
Sequence of COX 1 (P23219 24-599): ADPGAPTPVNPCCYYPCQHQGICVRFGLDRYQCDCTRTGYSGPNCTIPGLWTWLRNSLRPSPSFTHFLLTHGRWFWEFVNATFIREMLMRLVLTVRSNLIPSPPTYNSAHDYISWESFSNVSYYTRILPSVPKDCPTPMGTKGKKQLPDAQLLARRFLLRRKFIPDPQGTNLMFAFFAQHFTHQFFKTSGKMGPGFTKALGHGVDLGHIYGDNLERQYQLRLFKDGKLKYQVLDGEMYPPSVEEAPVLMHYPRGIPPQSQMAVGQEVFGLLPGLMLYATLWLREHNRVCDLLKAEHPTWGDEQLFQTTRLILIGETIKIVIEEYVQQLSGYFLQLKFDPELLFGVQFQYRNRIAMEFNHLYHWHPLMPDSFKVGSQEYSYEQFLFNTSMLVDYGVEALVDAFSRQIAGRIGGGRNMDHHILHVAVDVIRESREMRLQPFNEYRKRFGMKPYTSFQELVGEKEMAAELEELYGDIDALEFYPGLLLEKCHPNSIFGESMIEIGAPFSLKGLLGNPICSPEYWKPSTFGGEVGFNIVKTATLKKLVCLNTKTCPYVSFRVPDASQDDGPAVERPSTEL

serotonin receptors = details: Chairungsrilerd et al., 1996, 1998; cited from earlier work
DNA topoisomerase = details: Tosa et al., 1997; cited from earlier work

SMILES: COc1c(O)cc2oc3cc4c(c(O)c3c(=O)c2c1CC=C(C)C)CC(O)C(C)(C)O4 (centres unmarked) [Mangostanol]
- inhibition of cAMP phosphodiesterase (cAMP phosphodiesterase): strong inhibition

SMILES: [Cl][Cd][Cl] [Positive Control, CdCl2]
- Cytoxicity Scores 24 Hr [1]: 4/4/4
- Cytoxicity Scores 48 Hr [1]: 4/4/4
- Cytoxicity Scores 72 Hr [1]: 4/4/4
- Cytotoxicity Scores at 72 Hr [2]: 4/4/4

SMILES: CC(C)=CCc1c(O)cc2oc3cc(O)c(O)c(CC=C(C)C)c3c(=O)c2c1O [gamma-mangostin]
- inhibition of the activity of cyclooxygenase COX 1 (COX 1): directly inhibit the activity
- action on serotonin receptors (serotonin receptors): antagonist
- inhibition of DNA topoisomerase (DNA topoisomerase): inhibits
